# Results as given in ChEMBL document CHEMBL1201862, “PubChem BioAssay data set” (2004).
#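 Interpolation was linear, between the two tested concentrations surrounding the appropriate level; five concentrations were tested over 48 hours in 96-well plates. Here, GI50 denotes the concentration required for 50% inhibition of growth.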 Active and inactive are the calls of the source. Cut-off read from the data, not from the text of the source: active = GI50 up to about 1.1 µM and inactive = higher.
# Key:
# Experiment in all cases: NCI-60 cell line screen, 48 h
# HCT-116 = system: HCT-116
# M14 = system: M14
# MDA-MB-435 = system: MDA-MB-435
# MCF7 = system: MCF7
# MOLT-4 = system: MOLT-4
# NCI-H460 = system: NCI-H460
# IGROV-1 = system: IGROV-1
# BT-549 = system: BT-549
# MDA-MB-231 = system: MDA-MB-231
# 786-0 = system: 786-0
# SK-MEL-2 = system: SK-MEL-2
# OVCAR-8 = system: OVCAR-8
# LOX IMVI = system: LOX IMVI
# RPMI-8226 = system: RPMI-8226
# K562 = system: K562
# SR = system: SR
# HOP-18 = system: HOP-18
# KM-20L2 = system: KM-20L2
# DMS-114 = system: DMS-114
# SNB-78 = system: SNB-78
Structure (SMILES),GI50 (HCT-116),GI50 (M14),GI50 (MDA-MB-435),GI50 (MCF7),GI50 (MOLT-4),GI50 (NCI-H460),GI50 (IGROV-1),GI50 (BT-549),GI50 (MDA-MB-231),GI50 (786-0),GI50 (SK-MEL-2),GI50 (OVCAR-8),GI50 (LOX IMVI),GI50 (RPMI-8226),GI50 (K562),GI50 (SR),GI50 (HOP-18),GI50 (KM-20L2),GI50 (DMS-114),GI50 (SNB-78)
CC(=O)/N=C1\N/C(=C/c2cc([N+](=O)[O-])ccc2O)CN1C,> 100 µM (inactive),> 100 µM (inactive),> 100 µM (inactive),> 100 µM (inactive),6.31 µM (inactive),> 100 µM (inactive),> 100 µM (inactive),> 100 µM (inactive),> 100 µM (inactive),> 100 µM (inactive),> 100 µM (inactive),> 100 µM (inactive),> 100 µM (inactive),,,,,,,
CN1C(=O)C(C#N)C2C[C@@]1(C)Oc1ccccc12 (stereo partly specified),> 100 µM (inactive),> 100 µM (inactive),> 100 µM (inactive),> 100 µM (inactive),7.29 µM (inactive),91.8 µM (inactive),> 100 µM (inactive),64.9 µM (inactive),> 100 µM (inactive),> 100 µM (inactive),> 100 µM (inactive),> 100 µM (inactive),> 100 µM (inactive),> 100 µM (inactive),> 100 µM (inactive),,,,,
CC1=C(SCCO)C(=O)c2ccccc2C1=O,4.76 µM (inactive),14.3 µM (inactive),11.6 µM (inactive),3.02 µM (inactive),0.324 µM (active),13.2 µM (inactive),14.2 µM (inactive),17.8 µM (inactive),13.7 µM (inactive),,11.7 µM (inactive),12.4 µM (inactive),12.1 µM (inactive),2.55 µM (inactive),3.18 µM (inactive),3.21 µM (inactive),,,,
C=C1CC[C@@H](Br)C(C)(C)[C@]12CCC(C)(O)C(Cl)C2 (stereo partly specified),18.1 µM (inactive),,,,18.7 µM (inactive),17 µM (inactive),23.1 µM (inactive),,,,18.5 µM (inactive),18.7 µM (inactive),19.1 µM (inactive),18.8 µM (inactive),22.4 µM (inactive),,18.8 µM (inactive),18.3 µM (inactive),17.2 µM (inactive),52.5 µM (inactive)
CCOC(=O)/C=C1/C(CCCOCc2ccccc2)C2CCCC23CC2(CCN13)OCCO2 (stereo unspecified),,,,,11.4 µM (inactive),18.7 µM (inactive),24.7 µM (inactive),,,,17 µM (inactive),24.8 µM (inactive),18.1 µM (inactive),6.24 µM (inactive),13.5 µM (inactive),,21.3 µM (inactive),22.3 µM (inactive),13.9 µM (inactive),25.9 µM (inactive)
Nc1n[nH]c2c1Cc1c(n(Cc3ccc(Cl)cc3)c3ccccc13)C(=O)N2,8.15 µM (inactive),13.2 µM (inactive),3.71 µM (inactive),10.3 µM (inactive),5.66 µM (inactive),14 µM (inactive),12.5 µM (inactive),16.5 µM (inactive),14.4 µM (inactive),,15.9 µM (inactive),16.5 µM (inactive),9.79 µM (inactive),,2.65 µM (inactive),6.11 µM (inactive),,,,
COc1cc(OC)cc(Oc2nc3cc(F)c(F)cc3nc2-c2ccccc2)c1,> 100 µM (inactive),> 100 µM (inactive),> 100 µM (inactive),> 100 µM (inactive),> 100 µM (inactive),> 100 µM (inactive),> 100 µM (inactive),> 100 µM (inactive),,> 100 µM (inactive),> 100 µM (inactive),> 100 µM (inactive),> 100 µM (inactive),,,> 100 µM (inactive),,,,
Clc1cc(N/N=C(\c2ccccc2)c2ccccn2)ncn1,0.0277 µM (active),0.0361 µM (active),1.02 µM (active),< 0.01 µM (active),0.0308 µM (active),0.0262 µM (active),0.0308 µM (active),4.21 µM (inactive),0.0252 µM (active),,4.78 µM (inactive),< 0.01 µM (active),0.281 µM (active),0.0438 µM (active),0.0644 µM (active),0.0942 µM (active),,,,
COc1ccc2nc3c(C)cc4ccccc4n3c2c1,41.6 µM (inactive),> 100 µM (inactive),> 100 µM (inactive),51.5 µM (inactive),23 µM (inactive),25.3 µM (inactive),29.2 µM (inactive),> 100 µM (inactive),,48 µM (inactive),,72.1 µM (inactive),,55.1 µM (inactive),41.2 µM (inactive),50.2 µM (inactive),,,,
CC12CCC(=O)N1c1cnccc1N2 (stereo unspecified),> 100 µM (inactive),> 100 µM (inactive),,,> 100 µM (inactive),> 100 µM (inactive),> 100 µM (inactive),,,,> 100 µM (inactive),> 100 µM (inactive),,> 100 µM (inactive),> 100 µM (inactive),> 100 µM (inactive),,> 100 µM (inactive),> 100 µM (inactive),> 100 µM (inactive)
N#Cc1c(Cl)cc(Cl)n2c1nc1ccccc12,4.74 µM (inactive),8.53 µM (inactive),11.5 µM (inactive),4.66 µM (inactive),3.21 µM (inactive),8 µM (inactive),8.05 µM (inactive),6.38 µM (inactive),6.49 µM (inactive),2.86 µM (inactive),17.6 µM (inactive),15.3 µM (inactive),6.84 µM (inactive),4.27 µM (inactive),2.61 µM (inactive),5.18 µM (inactive),,,,
CCOC(=O)CCc1c(C)c2c(O)cc(O)cc2oc1=O,15.8 µM (inactive),,,> 100 µM (inactive),> 54.6 µM (inactive),> 100 µM (inactive),> 100 µM (inactive),,,,> 76.4 µM (inactive),> 100 µM (inactive),> 100 µM (inactive),> 100 µM (inactive),> 100 µM (inactive),,> 80.9 µM (inactive),> 100 µM (inactive),,> 100 µM (inactive)
CCOc1ncn(-c2ccc(NC(=S)Nc3cccc(O)c3)cc2)n1,> 100 µM (inactive),> 100 µM (inactive),> 100 µM (inactive),> 100 µM (inactive),> 100 µM (inactive),> 100 µM (inactive),> 100 µM (inactive),> 100 µM (inactive),> 100 µM (inactive),,,> 100 µM (inactive),> 100 µM (inactive),> 100 µM (inactive),> 100 µM (inactive),> 100 µM (inactive),,,,
CC1(C)OC[C@H](C(=N)OCc2ccccc2)O1,> 100 µM (inactive),> 100 µM (inactive),,,> 100 µM (inactive),> 100 µM (inactive),> 100 µM (inactive),,,,> 100 µM (inactive),> 100 µM (inactive),,> 100 µM (inactive),> 100 µM (inactive),> 100 µM (inactive),,> 100 µM (inactive),> 100 µM (inactive),> 100 µM (inactive)
Brc1ccc2[nH]cc([C@@H]3CN[C@@H](c4c[nH]c5ccc(Br)cc45)CN3)c2c1,4.18 µM (inactive),5.25 µM (inactive),3.9 µM (inactive),3.66 µM (inactive),1.98 µM (inactive),7.57 µM (inactive),3.41 µM (inactive),14.8 µM (inactive),3.79 µM (inactive),3.94 µM (inactive),8.95 µM (inactive),3.63 µM (inactive),1.66 µM (inactive),2.12 µM (inactive),1.77 µM (inactive),1.86 µM (inactive),,,,
CCCCCCCCCCCCCCCc1nnc(S)[nH]1,> 100 µM (inactive),> 100 µM (inactive),,,20.8 µM (inactive),> 100 µM (inactive),,,,,29.6 µM (inactive),,> 100 µM (inactive),79.3 µM (inactive),52.6 µM (inactive),29.6 µM (inactive),,,60.4 µM (inactive),> 100 µM (inactive)
N#C/C(=C\c1ccc(Cl)cc1)c1nc2ccccc2c(=O)[nH]1,> 100 µM (inactive),> 100 µM (inactive),> 100 µM (inactive),> 100 µM (inactive),> 100 µM (inactive),> 100 µM (inactive),> 100 µM (inactive),23.4 µM (inactive),33.8 µM (inactive),44.4 µM (inactive),> 100 µM (inactive),> 100 µM (inactive),> 100 µM (inactive),> 100 µM (inactive),> 100 µM (inactive),> 100 µM (inactive),,,,
O=C1C=CC=C/C1=C1\N=C(c2ccccc2OCC(=O)c2ccccc2)SS1,> 100 µM (inactive),> 100 µM (inactive),> 100 µM (inactive),> 100 µM (inactive),22.6 µM (inactive),> 100 µM (inactive),> 100 µM (inactive),46.1 µM (inactive),> 100 µM (inactive),> 100 µM (inactive),> 100 µM (inactive),73.5 µM (inactive),> 100 µM (inactive),> 100 µM (inactive),> 100 µM (inactive),,,,,
O=C1OC(CN2CCOCC2)CN1/N=C/c1ccc([N+](=O)[O-])o1 (stereo unspecified) [FURALTADONE],19.1 µM (inactive),20.7 µM (inactive),18 µM (inactive),46 µM (inactive),51.6 µM (inactive),31.4 µM (inactive),32.3 µM (inactive),86.1 µM (inactive),33.3 µM (inactive),62.7 µM (inactive),69.3 µM (inactive),45.8 µM (inactive),21.7 µM (inactive),24.2 µM (inactive),70 µM (inactive),36.8 µM (inactive),,,,
